“Also recorded” adds a separate entry of the source.
Assays:
in vitro = details: rat, liver microsomes
SM1 melanoma tumors = test: Syngeneic SM1 murine melanoma model, tumor growth; type: in vivo; details: C57BL/6 mice with SM1 tumors; Suprastat 25 mg/kg IP, anti-PD1 15 mg/kg IP; vs control (PBS)
Ac—H3 = test: Immunoblot of Ac-H3 in WM164 melanoma cells; type: cell-based, human; details: 0.1 to 10 μM, overnight
Procedure: (§1) The SM1 murine melanoma cells were obtained from Dr. A. Ribas at the University of California, Los Angeles. WM164 human melanoma cells were obtained from ATCC. The cells were cultured in an incubator in RPMI 1640, 1% penicillin-streptomycin, and 10% fetal bovine serum at 37° C. with 5% CO2. […] For STAT3 phosphorylation assays, cells were pre-treated with or without HDAC6i (5 μM) for overnight followed by treatment with recombinant human IL-6 (Biolegend) for 20 min. PBS was added as a control. RAW 264.7 macrophages were purchased from ATCC and cultured in DMEM medium supplemented with 10% FBS, 1% non-essential amino acids, and 2-mercaptoethanol (50 μM). […] Cytotoxicity assay was performed using CellTox Green (Promega, Cat #G8731) following the manufacturer's instructions, and fluorescence readings were obtained on Spectramax i3 (Molecular Devices) multimode plate reader at wavelengths EX 485 nm and EM 520 nm. […]
(§2) The cells were harvested and lysed with RIPA buffer (ThermoScientific, 89900) containing protease and phosphatase inhibitors (ThermoScientific, 78440) by sonication in Bioruptor (Diagenode) for 8 cycles of 30 seconds ON and 30 seconds OFF on high setting. To assess the expression of proteins, total protein samples were heat-denatured in SDS sample loading buffer, and 15-20 μg of protein was analysed on 4-20% SDS-PAGE gels (Bio-Rad, 456-1093). […]

immune cells = test: Immune cell phenotyping by flow cytometry in the SM1 melanoma model; type: in vivo, C57BL/6 mice
Procedure: To understand the immunomodulatory properties of Suprastat, a comprehensive immune cell phenotyping by flow cytometry was performed. […] (see, e.g., Knox et al., Sci. Rep. 9: 6136 (2019)). […] A significant change in immunosuppressive T-regs (FIG. 6F) was not observed. […] (see, e.g., Knox et al., Sci. Rep. 9: 6136 (2019)).

STAT3 = test: IL-6 induced STAT3 phosphorylation in WM164 melanoma cells; type: cell-based, human; details: WM164 cells pre-treated with 5 μM, then IL-6 (30 ng/mL) for 20 min, vs IL-6 alone
Procedure: as §1, §2

Ac-α-tubulin [1] = test: Immunoblot of Ac-α-tubulin in RAW 264.7 macrophages; type: cell-based; details: 1, 5, and 10 μM, overnight, listed as Suprastat
Procedure: as §1, §2

physchem = details: PBS
Ac-α-tubulin [2] = test: Immunoblot of Ac-α-tubulin in WM164 melanoma cells; type: cell-based, human; details: 0.1 to 10 μM, overnight
Procedure: as §1, §2

IL10 gene = IL10 gene expression by quantitative PCR in bone marrow-derived macrophages; type: cell-based; details: mouse bone marrow-derived macrophages, 5 μM, vs vehicle, mRNA quantification
Procedure: Total RNA was isolated from cells following the manufacturer's instructions of QIAzol (Qiagen, 79306). RNA quantification was done using NanoDrop One spectrophotometer (NanoDrop Technologies). Samples with absorbance at 260/280 ratios over 1.9 were used for cDNA synthesis with iScript cDNA synthesis kit (Bio-Rad, 1708891). Synthesized cDNA from 1 μg of total RNA was diluted 1:10 with nuclease-free water. The quantitative PCR analysis was performed using iQ SYBR Green Supermix (Bio-Rad, 1708882) on CFX96 real-time system (Bio-Rad). Gene expression analysis was performed using 2^−ΔΔCt method, and target mRNA levels were normalized to GAPDH expression. Cycling conditions were used as per manufacturer's instructions. Single PCR product amplification was confirmed by melting curve analysis in all the experiments performed. The sequence of primers used in the analysis are as follows: […]
Immune cells, such as macrophages, are a major cellular component of the tumor microenvironment. Tumor-associated macrophages are often tumor promoting by secreting anti-inflammatory cytokines such as TGFβ and IL-10. It was previously established that HDAC6 forms a complex with STAT3, and either pharmacological inhibition or shRNA mediated knockdown of HDAC6 decreased STAT3 recruitment at the IL10 promoter region in antigen-presenting cells (see, e.g., Cheng et al., J. Immunol. 193: 2850-2862 (2014)). […]

[3] = tested on: SM1 murine melanoma cells; test: CellTox Green cytotoxicity assay in SM1 cells; type: cell-based; details: 24 h
Procedure: The SM1 murine melanoma cells were obtained from Dr. A. Ribas at the University of California, Los Angeles. WM164 human melanoma cells were obtained from ATCC. The cells were cultured in an incubator in RPMI 1640, 1% penicillin-streptomycin, and 10% fetal bovine serum at 37° C. with 5% CO2. […] For STAT3 phosphorylation assays, cells were pre-treated with or without HDAC6i (5 μM) for overnight followed by treatment with recombinant human IL-6 (Biolegend) for 20 min. PBS was added as a control. RAW 264.7 macrophages were purchased from ATCC and cultured in DMEM medium supplemented with 10% FBS, 1% non-essential amino acids, and 2-mercaptoethanol (50 μM). RAW macrophages were treated with 1 μM, 5 μM, and 10 μM of Suprastat overnight before collecting the lysates for immunoblot assay. Cytotoxicity assay was performed using CellTox Green (Promega, Cat #G8731) following the manufacturer's instructions, and fluorescence readings were obtained on Spectramax i3 (Molecular Devices) multimode plate reader at wavelengths EX 485 nm and EM 520 nm. SM1 cells were treated with compounds at various concentrations for 24 h to determine cytotoxicity.

Row | SMILES | half-life (in vitro) [h] | tumor burden (tumor volume) (SM1 melanoma tumors) | levels of acetylated histone H3 (Ac—H3) (Ac—H3) | F4/80+CD206+ pro-tumor M2 macrophages (immune cells; flow cytometry) | natural killer (NK) cells (immune cells; flow cytometry) | percentage of CD8+ central memory (CM) cells (immune cells; flow cytometry) | M1/M2 ratio (immune cells; relative to control and anti-PD1 groups) | Y705 phosphorylation of STAT3 (STAT3) | levels of Ac-α-tubulin in RAW 264.7 macrophages (Ac-α-tubulin [1]) | half-life (physchem) [h] | levels of acetylated α-tubulin (Ac-α-tubulin) (Ac-α-tubulin [2]) | expression of IL10 gene (IL10 gene) | concentration at which cytotoxicity starts [3] [µM]
1 | NCc1ccc(NC(=O)N(CCCCO)Cc2ccc(C(=O)NO)cc2)cc1 [Compound 6a, 4-((3-(4-(Aminomethyl)phenyl)-1-(4-hydroxybutyl)ureido)methyl)-N-hydroxybenz-amide] | 2.88 | reduced the tumor burden | slight increase in the levels of Ac—H3 | significantly decreased | positive trend | increase in the percentage of CD8+ central memory (CM) cells | significantly higher M1/M2 ratio | decreased Y705 phosphorylation of STAT3 | dose-dependent effect; also recorded: dose-dependent increase in the levels of Ac-α-tubulin | > 24 | highest Ac-α-tubulin level | decreased expression of IL10 gene | –
2 | CCCCN(Cc1ccc(C(=O)NO)cc1)C(=O)Nc1ccc(CN)cc1 [Compound 6b, 4-((3-(4-(Aminomethyl)phenyl)-1-butylureido)methyl)-N-hydroxybenzamide] | – | – | – | – | – | – | – | – | – | – | – | – | 10

Source: patent US20230250054A1, “SELECTIVE HISTONE DEACETYLASE 6 INHIBITORS” (The Board of Trustees of the University of Illinois, priority 2020, published 2023)
